This note sets out measurements from the supplement of paper PMC10307832.

One test concerns EMC-BAC-2. The test is described as follows: relative viability (nuclei count vs DMSO), 5 days (fraction); higher = more cells survive. Conditions: first compound 20 µM. The procedure, abridged: (§1)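 Lung cancer cell lines were seeded in 1536-well plates and dosed by pin tool the next day, with either a single drug or a fixed anchor-drug dose combined with five library-drug doses (not always all listed) spaced in √10 steps. Five days later, one step fixed the cells and stained their nuclei (final 0.05% Triton X-100, 1% formaldehyde, 1 ug/ml Hoechst), and nuclei were counted on 4× images. Relative viability is the nuclei count in treated wells divided by the count in vehicle wells, and each value is the median of duplicate plates.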
For the compound `COCC1(CO)C(=O)C2CCN1CC2` (stereo not given) [PRIMA-1MET] + C[C@@H](Oc1cc(-c2cnn(C3CCNCC3)c2)cnc1N)c1c(Cl)ccc(F)c1Cl [Crizotinib] (partner 1 µM), the relative viability worked out at 0.793.

For a further test, the system named is NCI-H727. The description is as above. Conditions: first compound 0.2 µM. The procedure, abridged:
as §1
In turn, `COCC1(CO)C(=O)C2CCN1CC2` (stereo not given) [PRIMA-1MET] + CC(C)C[C@H](NC(=O)[C@H](Cc1ccccc1)NC(=O)c1cnccn1)B(O)O [Bortezomib] (partner 0.002 µM) returned a relative viability of 0.573.
On the same count and under the same terms, in the case of `COCC1(CO)C(=O)C2CCN1CC2` (stereo not given) [PRIMA-1MET] + CC(=O)Nc1cccc(-n2c(=O)n(C3CC3)c(=O)c3c(Nc4ccc(I)cc4F)n(C)c(=O)c(C)c32)c1 [Trametinib] (partner 0.02 µM) it was 0.423; in that of `COCC1(CO)C(=O)C2CCN1CC2` (stereo not given) [PRIMA-1MET] + Nc1ncn([C@H]2C[C@H](O)[C@@H](CO)O2)c(=O)n1 [Decitabine] (partner 2 µM), 0.594.
Same read-out and setting: in the case of `COCC1(CO)C(=O)C2CCN1CC2` (stereo not given) [PRIMA-1MET] + O=C(c1cc(Cc2n[nH]c(=O)c3ccccc23)ccc1F)N1CCN(C(=O)C2CC2)CC1 [Olaparib] (partner 8 µM) it was 0.6.
Same read-out and setting: in the case of `COCC1(CO)C(=O)C2CCN1CC2` (stereo not given) [PRIMA-1MET] + C[C@@H](Oc1cc(-c2cnn(C3CCNCC3)c2)cnc1N)c1c(Cl)ccc(F)c1Cl [Crizotinib] (partner 1 µM) it was 0.841.

Still in this test, the particulars now being: first compound 0.6325 µM.
`COCC1(CO)C(=O)C2CCN1CC2` (stereo not given) [PRIMA-1MET] + CC(C)C[C@H](NC(=O)[C@H](Cc1ccccc1)NC(=O)c1cnccn1)B(O)O [Bortezomib] (partner 0.002 µM) showed a relative viability of 0.829.
`COCC1(CO)C(=O)C2CCN1CC2` (stereo not given) [PRIMA-1MET] + CC(=O)Nc1cccc(-n2c(=O)n(C3CC3)c(=O)c3c(Nc4ccc(I)cc4F)n(C)c(=O)c(C)c32)c1 [Trametinib] (partner 0.02 µM) gave a relative viability of 0.322.
Same read-out and setting: as for `COCC1(CO)C(=O)C2CCN1CC2` (stereo not given) [PRIMA-1MET] + Nc1ncn([C@H]2C[C@H](O)[C@@H](CO)O2)c(=O)n1 [Decitabine] (partner 2 µM), the figure is 0.385; as for `COCC1(CO)C(=O)C2CCN1CC2` (stereo not given) [PRIMA-1MET] + O=C(c1cc(Cc2n[nH]c(=O)c3ccccc23)ccc1F)N1CCN(C(=O)C2CC2)CC1 [Olaparib] (partner 8 µM), 0.676.
Turning to `COCC1(CO)C(=O)C2CCN1CC2` (stereo not given) [PRIMA-1MET] + C[C@@H](Oc1cc(-c2cnn(C3CCNCC3)c2)cnc1N)c1c(Cl)ccc(F)c1Cl [Crizotinib] (partner 1 µM), the relative viability stood at 0.873.

The same test, now with this note: first compound 2 µM.
`COCC1(CO)C(=O)C2CCN1CC2` (stereo not given) [PRIMA-1MET] + CC(C)C[C@H](NC(=O)[C@H](Cc1ccccc1)NC(=O)c1cnccn1)B(O)O [Bortezomib] (partner 0.002 µM) yielded a relative viability of 0.618.
Same read-out and setting: as for `COCC1(CO)C(=O)C2CCN1CC2` (stereo not given) [PRIMA-1MET] + C[C@@H](Oc1cc(-c2cnn(C3CCNCC3)c2)cnc1N)c1c(Cl)ccc(F)c1Cl [Crizotinib] (partner 1 µM), the figure is 0.82.

The same test, now with this note: first compound 6.325 µM.
As to `COCC1(CO)C(=O)C2CCN1CC2` (stereo not given) [PRIMA-1MET] + CC(C)C[C@H](NC(=O)[C@H](Cc1ccccc1)NC(=O)c1cnccn1)B(O)O [Bortezomib] (partner 0.002 µM), the relative viability stood at 0.573.
Compound `COCC1(CO)C(=O)C2CCN1CC2` (stereo not given) [PRIMA-1MET] + CC(=O)Nc1cccc(-n2c(=O)n(C3CC3)c(=O)c3c(Nc4ccc(I)cc4F)n(C)c(=O)c(C)c32)c1 [Trametinib] (partner 0.02 µM) showed a relative viability of 0.413.
Still for that read-out and setting: in the case of `COCC1(CO)C(=O)C2CCN1CC2` (stereo not given) [PRIMA-1MET] + Nc1ncn([C@H]2C[C@H](O)[C@@H](CO)O2)c(=O)n1 [Decitabine] (partner 2 µM) it was 0.849; in that of `COCC1(CO)C(=O)C2CCN1CC2` (stereo not given) [PRIMA-1MET] + O=C(c1cc(Cc2n[nH]c(=O)c3ccccc23)ccc1F)N1CCN(C(=O)C2CC2)CC1 [Olaparib] (partner 8 µM), 0.527; in that of `COCC1(CO)C(=O)C2CCN1CC2` (stereo not given) [PRIMA-1MET] + C[C@@H](Oc1cc(-c2cnn(C3CCNCC3)c2)cnc1N)c1c(Cl)ccc(F)c1Cl [Crizotinib] (partner 1 µM), 0.715.

Still in this test, the particulars now being: first compound 20 µM.
On to `COCC1(CO)C(=O)C2CCN1CC2` (stereo not given) [PRIMA-1MET] + CC(C)C[C@H](NC(=O)[C@H](Cc1ccccc1)NC(=O)c1cnccn1)B(O)O [Bortezomib] (partner 0.002 µM), for which the relative viability is 0.0549.
Regarding `COCC1(CO)C(=O)C2CCN1CC2` (stereo not given) [PRIMA-1MET] + CC(=O)Nc1cccc(-n2c(=O)n(C3CC3)c(=O)c3c(Nc4ccc(I)cc4F)n(C)c(=O)c(C)c32)c1 [Trametinib] (partner 0.02 µM), the relative viability was determined as 0.377.
Still for that read-out and setting: in the case of `COCC1(CO)C(=O)C2CCN1CC2` (stereo not given) [PRIMA-1MET] + Nc1ncn([C@H]2C[C@H](O)[C@@H](CO)O2)c(=O)n1 [Decitabine] (partner 2 µM) it was 0.685; in that of `COCC1(CO)C(=O)C2CCN1CC2` (stereo not given) [PRIMA-1MET] + O=C(c1cc(Cc2n[nH]c(=O)c3ccccc23)ccc1F)N1CCN(C(=O)C2CC2)CC1 [Olaparib] (partner 8 µM), 0.47; in that of `COCC1(CO)C(=O)C2CCN1CC2` (stereo not given) [PRIMA-1MET] + C[C@@H](Oc1cc(-c2cnn(C3CCNCC3)c2)cnc1N)c1c(Cl)ccc(F)c1Cl [Crizotinib] (partner 1 µM), 0.117.

For a further test, the system named is PC-3 [JPC-3]. The description is as above. Conditions: first compound 0.2 µM. The gist of the method:
as §1
`COCC1(CO)C(=O)C2CCN1CC2` (stereo not given) [PRIMA-1MET] + CC(C)C[C@H](NC(=O)[C@H](Cc1ccccc1)NC(=O)c1cnccn1)B(O)O [Bortezomib] (partner 0.002 µM) registered a relative viability of 0.958.
On the same count and under the same terms, in the case of `COCC1(CO)C(=O)C2CCN1CC2` (stereo not given) [PRIMA-1MET] + CC(=O)Nc1cccc(-n2c(=O)n(C3CC3)c(=O)c3c(Nc4ccc(I)cc4F)n(C)c(=O)c(C)c32)c1 [Trametinib] (partner 0.02 µM) it was 0.757.
Same read-out and setting: as for `COCC1(CO)C(=O)C2CCN1CC2` (stereo not given) [PRIMA-1MET] + Nc1ncn([C@H]2C[C@H](O)[C@@H](CO)O2)c(=O)n1 [Decitabine] (partner 2 µM), the figure is 0.822; as for `COCC1(CO)C(=O)C2CCN1CC2` (stereo not given) [PRIMA-1MET] + O=C(c1cc(Cc2n[nH]c(=O)c3ccccc23)ccc1F)N1CCN(C(=O)C2CC2)CC1 [Olaparib] (partner 8 µM), 1.4.
On the same count and under the same terms, in the case of `COCC1(CO)C(=O)C2CCN1CC2` (stereo not given) [PRIMA-1MET] + C[C@@H](Oc1cc(-c2cnn(C3CCNCC3)c2)cnc1N)c1c(Cl)ccc(F)c1Cl [Crizotinib] (partner 1 µM) it was 0.995.

The test is the same for the next values; noted with them: first compound 0.6325 µM.
`COCC1(CO)C(=O)C2CCN1CC2` (stereo not given) [PRIMA-1MET] + CC(C)C[C@H](NC(=O)[C@H](Cc1ccccc1)NC(=O)c1cnccn1)B(O)O [Bortezomib] (partner 0.002 µM) registered a relative viability of 0.688.
Same read-out and setting: as for `COCC1(CO)C(=O)C2CCN1CC2` (stereo not given) [PRIMA-1MET] + CC(=O)Nc1cccc(-n2c(=O)n(C3CC3)c(=O)c3c(Nc4ccc(I)cc4F)n(C)c(=O)c(C)c32)c1 [Trametinib] (partner 0.02 µM), the figure is 0.667.
